The values that follow come from US6555559B1, “5,6,7-trinor-4,8-inter-m-phenylene PGI2, derivative and drugs containing the same” (Toray Industries, Inc., priority 1998, dated 2003).

Converted amounts (≈) assume the structure as drawn.

What all share (assay type): cell-based
The subject of test [1] is human platelet aggregation. The test is described as follows: Effect on human platelet aggregation (ADP-induced, in the presence of SQ-29548). The following applies: human PRP, SQ-29548 added, aggregation induced with ADP, compound 10 μM; control 38 ± 4.9. As for the experimental part:
The blood collected from healthy persons was centrifuged to separate platelet-rich plasma (PRP) and platelet-poor plasma (PPP). […] Experiment was carried out for 3 examples per group.

In test [2] the test system is Helicobacter pylori (three strains of ATCC43504, ATCC43526, and TK1402). Nature of the test: Antibacterial activity on Helicobacter pylori, disk method, lethal concentration (LC). The following applies: culture 4 days. As for the experimental part:
A blank disk (produced by Beckton Deckinson Co.,) was placed in a brain heart infusion agar medium containing 7% horse blood and coated with Helicobacter pylori (three strains of ATCC43504, ATCC43526, and TK1402). The disk was soaked with 10 μl of a solution of a test compound in dimethylsulfoxide, and then cultured under microaerophilic conditions including 5% of O2, 10% of CO2 and 85% of N2 at 37° C. for 4 days. After the completion of culture, the diameter of a growth inhibition circle formed around the disk was measured, and the lethal concentration (LC) of each test compound was computed according to the computation expression of Hultmark et al. (The EMBO Journal, 2, 571-576, 1983).

In test [3] the test system is Helicobacter pylori (2 ATCC strains and 25 clinical isolates). The test is described as follows: Antibacterial activity on Helicobacter pylori, agar dilution MIC, 27 strains. The following applies: for Growth inhibition rate: share of 27 strains inhibited. As for the experimental part:
As test strains, 2 commercial ATCC strains ([…] and TACC43526 strain) of Helicobacter pylori, and 25 clinical isolates were used. Each of the strains was inoculated into a brain heart infusion agar medium containing 7% horse blood, and cultured under microaerophilic conditions including 5% of O2, 10% of CO2 and 85% of N2 at 37° C. After culture for 3 to 4 days, colonies of each strain formed on the medium were collected, and suspended in a brain heart infusion medium containing 10% of fetal calf serum so that turbidity was McFarland No. 1 (the number of bacteria was about 3×10^8/ml) to form a test bacterial suspension. On the other hand, a test compound (compound 4) was dissolved in dimethylsulfoxide, and a diluent in a double dilution series was prepared with dimethylsulfoxide so that the final concentration of the solvent was 0.5%, to form a test drug solution. 100 μl of the test drug solution was mixed with 20 ml of a brain heart infusion agar medium containing 7% horse blood and about 45° C., and the resultant mixture was solidified by allowing to cool to form a test medium. Next, about 5 μl of test bacterial suspension was inoculated into the medium by using a micro planter, and then cultured under microaerophilic conditions including 5% of O2, 10% of CO2 and 85% of N2 at 37° C. for 4 days. […] The minimum concentration at which growth of 50% of the total 27 stains used in the test was inhibited was MIC50, and the minimum concentration at which growth of 90% the strains used was inhibited was MIC90.

As a reminder, the MIC50 is the lowest concentration that inhibits either 50% of growth or 50% of the strains tested, depending on the study. Read a high MIC50 as lower susceptibility. Usually MIC90 stands for the lowest concentration that inhibits either 90% of growth or 90% of the strains tested, depending on the study. Low values mean higher susceptibility, high ones lower susceptibility.

As for `CC(C)(Oc1ccccc1)C(O)C(F)=CC1C(O)CC2Oc3c(CCC(=O)O)cccc3C21` (stereo not drawn) [Example 3, 14-Fluoro-16-methyl-16-phenoxy-2,5,6,7,18,19,20-heptanor-4,8-inter-m-phenylene PGI2], the Platelet aggregation in test [1] is reported as 54 ± 1.7%.

`COC(=O)CCc1cccc2c1OC1CC(OC(C)=O)C(C=C(F)C(=O)C(C)(C)Oc3ccccc3)C21` (stereo not drawn) [Example 1, 14-Fluoro-16-methyl-15-oxo-16-phenoxy-2,5,6,7,18,19,20-heptanor-4,8-inter-m-phenylene PGI2 Methyl Ester, 11-Acetate]: the entries for the “Antibacterial activity (lethal concentration LC)” value in test [2] (Helicobacter pylori strain ATCC43504), in test [2] (Helicobacter pylori strain ATCC43526) and in test [2] (Helicobacter pylori strain TK1402) were 141 ± 27 µM, 169 ± 6 µM and 151 ± 4 µM, respectively.

In the case of `CC(C)(Oc1ccccc1)C(O)C(F)=CC1C(O)CC2Oc3c(CCC(=O)O)cccc3C21` (stereo not drawn) [Example 4, 14-Fluoro-16-methyl-16-phenoxy-15-epi-2,5,6,7,18,19,20-heptanor-4,8-inter-m-phenylene PGI2], the “Number of strains inhibited/total strains” value in test [3] (concentration 12.5 μM) is recorded as 11/27; in test [3] (concentration 25 μM), 20/27; in test [3] (concentration 50 μM), 26/27. Also, the results for the Growth inhibition rate in test [3] (concentration 12.5 μM), in test [3] (concentration 25 μM) and in test [3] (concentration 50 μM) were 40.7%, 74.1% and 96.3%, respectively. Further, the MIC50 in test [3] (minimum concentration inhibiting growth of 50% of the total 27 strains) was determined as 12.5 µM (≈ 5.71 µg/mL). In test [3] (minimum concentration inhibiting growth of 90% of the total 27 strains), this compound showed an MIC90 of 50 µM (≈ 22.8 µg/mL).
